Data as given in patent US20250186541A1, “DLL3 TARGETING PEPTIDES AND CONSTRUCTS THEREOF” (MARIANA ONCOLOGY INC., priority 2023, published 2025).
Numbered stars: 1 amine (or outer) side, 2 acyl side, 3 side chain; on linkers, the order of the positions; unused ones are H or OH. Bridge positions count the residues as written; N and C are the ends. Square brackets hold non-standard residues; d marks the D form. Triazole bridges read from a SMILES are 1,4-linked. Peptide text beside a SMILES is read from it. * marks the point of attachment. Ala(1-CH2CO2H-4-piperidyl) = N[C@@H](CC1CCN(CC(=O)O)CC1)C(=O)O; Ala(piperidin-4-yl) = O=C([C@H](CC1CCN([*:3])CC1)N[*:1])[*:2]; DOTA = O=C(O)CN1CCN(CC(=O)O)CCN(CC(=O)*)CCN(CC(=O)O)CC1; Phe(4-CH2NH2) = NCc1ccc(C[C@H](N)C(=O)O)cc1; Phe(3-F) = N[C@@H](Cc1cccc(F)c1)C(=O)O; 1Nal = N[C@@H](Cc1cccc2ccccc12)C(=O)O; 2Nal = N[C@@H](Cc1ccc2ccccc2c1)C(=O)O; NMetBuAla = CN[C@@H](CC(C)(C)C)C(=O)O; Aha = [N-]=[N+]=NCC[C@H](N)C(=O)O; tBuAla = CC(C)(C)C[C@H](N)C(=O)O; αMeF = C[C@](N)(Cc1ccccc1)C(=O)O; αMeD = C[C@](N)(CC(=O)O)C(=O)O; AllylGly = C=CC[C@H](N)C(=O)O; Chg = N[C@H](C(=O)O)C1CCCCC1; αMeP = C[C@@]1(C(=O)O)CCCN1; Pra = C#CC[C@H](N)C(=O)O; dNMeA = CN[C@H](C)C(=O)O; Ahx = NCCCCCC(=O)O

The molecules below were run against T1, human DLL3 (Homo sapiens, UniProt Q9NYJ7) (assay: Affinity determination by Surface Plasmon Resonance (SPR), Biacore, 1:1 binding model). Conditions: biotinylated human DLL3 on streptavidin chip, 25° C.; NB = nonbinding.
T1 construct: biotin (biotinylated)
T1 sequence (Q9NYJ7 27-618): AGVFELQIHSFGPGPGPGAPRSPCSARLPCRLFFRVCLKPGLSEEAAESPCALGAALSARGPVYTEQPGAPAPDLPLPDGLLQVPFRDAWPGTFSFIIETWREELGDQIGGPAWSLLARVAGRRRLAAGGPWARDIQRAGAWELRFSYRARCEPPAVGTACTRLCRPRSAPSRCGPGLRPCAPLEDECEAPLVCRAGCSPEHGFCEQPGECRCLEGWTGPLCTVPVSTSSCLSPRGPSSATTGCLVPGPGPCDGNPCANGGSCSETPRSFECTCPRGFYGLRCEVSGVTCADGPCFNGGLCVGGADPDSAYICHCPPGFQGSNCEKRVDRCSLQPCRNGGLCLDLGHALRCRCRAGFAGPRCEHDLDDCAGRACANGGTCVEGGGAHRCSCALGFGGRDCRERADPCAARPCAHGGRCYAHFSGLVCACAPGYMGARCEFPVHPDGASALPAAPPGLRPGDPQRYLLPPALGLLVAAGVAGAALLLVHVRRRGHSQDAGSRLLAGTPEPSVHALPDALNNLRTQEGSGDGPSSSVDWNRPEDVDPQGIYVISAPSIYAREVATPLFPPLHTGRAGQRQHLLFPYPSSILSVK
Method in brief: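 SPR with biotinylated human DLL3 captured on a streptavidin chip, with a reference surface subtracted. Samples were injected at several concentrations at 100 μL/min in phosphate buffer with 137 mM NaCl, 2.7 mM KCl, 0.05% P20 and 2% DMSO. Kinetic and affinity constants came from a 1:1 binding fit.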

Row | Structure (SMILES) | Kd [nM]
1 | CC(=O)N[C@H](C)C(=O)N[C@@H](CO)C(=O)N[C@@H](CC(=O)O)C(=O)N[C@H]1Cc2cn(nn2)CC[C@@H](C(=O)N2CCC[C@@]2(C)C(=O)N[C@@H](Cc2ccccc2)C(=O)N[C@@H](CC(=O)O)C(=O)N[C@H](CCCCNC(=O)CN2CCN(CC(=O)O)CCN(CC(=O)O)CCN(CC(=O)O)CC2)C(N)=O)NC(=O)[C@H](CC(N)=O)NC(=O)[C@H](Cc2ccc3ccccc3c2)NC(=O)[C@H](CCC(N)=O)NC(=O)[C@H](CC(C)(C)C)NC(=O)[C@H](Cc2cccc3ccccc23)NC1=O [Cpd #163, Ac-(D-Ala)-S-D-[Pra(5)]-(1Nal)-(t-Bu-Ala)-Q-(2Nal)-N-[DabN3(5)]-(aMe-P)-F -D-D-Lys(DOTA)-CONH2] (Ac-[dA]SD[Pra][1Nal][tBuAla]Q[2Nal]N[Aha][αMeP]FD[dK](DOTA)-NH2; triazole 4-10) | > 300
2 | CSCC[C@H](NC(C)=O)C(=O)N[C@@H](CO)C(=O)N[C@@H](CC(=O)O)C(=O)N[C@H]1CSSC[C@@H](C(=O)N2CCC[C@H]2C(=O)N[C@@H](Cc2ccccc2)C(=O)N[C@@](C)(CC(=O)O)C(=O)N[C@H](CCCCNC(=O)CN2CCN(CC(=O)O)CCN(CC(=O)O)CCN(CC(=O)O)CC2)C(N)=O)NC(=O)[C@H](CC(N)=O)NC(=O)[C@H](Cc2c[nH]c3ccccc23)NC(=O)[C@H](CCC(N)=O)NC(=O)[C@H](CC(C)C)NC(=O)[C@H](Cc2c[nH]c3ccccc23)NC1=O [compound 53, Ac-M-S-D-C(3)-W-L-Q-W-N-C(3)-P-F-(aMeD)-D-Lys(DOTA)-CONH2] (Ac-MSDCWLQWNCPF[αMeD][dK](DOTA)-NH2; disulfide 4-10) | > 300
3 | CC(=O)N[C@@H](CC1CCNCC1)C(=O)N[C@@H](CO)C(=O)N[C@@H](CC(=O)O)C(=O)N[C@H]1CC=CC[C@@H](C(=O)N2CCC[C@@]2(C)C(=O)N[C@@H](Cc2ccccc2)C(=O)N[C@@H](CC(=O)O)C(N)=O)NC(=O)[C@H](CC(N)=O)NC(=O)[C@H](Cc2ccc3ccccc3c2)NC(=O)[C@H](Cc2ccc(CNC(=O)CN3CCN(CC(=O)O)CCN(CC(=O)O)CCN(CC(=O)O)CC3)cc2)NC(=O)[C@H](CC(C)(C)C)N(C)C(=O)[C@H](Cc2cccc3ccccc23)NC1=O [compound 187, Ac-[3-(4-piperidinyl)-Ala]-S-D-AllyG(4)-(1Nal)-(NMe-Tba)-[PAF(DOTA)]-(2Nal)-N-AllyG(4)-(aMe-P)-F -D-CONH2] (Ac-[Ala(piperidin-4-yl)]SD[AllylGly][1Nal][NMetBuAla][Phe(4-CH2NH2)](DOTA)[2Nal]N[AllylGly][αMeP]FD-NH2; staple 4-10 (inferred)) | > 30
4 | CC(C)C[C@@H]1NC(=O)[C@H](Cc2c[nH]c3ccccc23)NC(=O)[C@@H](NC(=O)[C@H](CC(=O)O)NC(=O)[C@H](CO)NC(=O)CCCCCNC(=O)CN2CCN(CC(=O)O)CCN(CC(=O)O)CCN(CC(=O)O)CC2)CSSC[C@@H](C(=O)N2CCC[C@H]2C(=O)N[C@@H](Cc2ccc3ccccc3c2)C(=O)N[C@@H](CC(=O)O)C(N)=O)NC(=O)[C@H](CC(N)=O)NC(=O)[C@H](Cc2c[nH]c3ccccc23)NC(=O)[C@H](CCC(N)=O)NC1=O [compound 40, DOTA-Ahx-S-D-C(3)-W-L-Q-W-N-C(3)-P-(2Nal)-D-CONH2] ({DOTA-Ahx}-SDCWLQWNCP[2Nal]D-NH2; disulfide 3-9) | > 300
5 | CC(=O)N[C@H](C(=O)N[C@@H](CO)C(=O)N[C@@H](CC(=O)O)C(=O)N[C@H]1CSSC[C@@H](C(=O)N2CCC[C@H]2C(=O)N[C@@H](Cc2ccccc2)C(=O)N[C@@H](CC(=O)O)C(N)=O)NC(=O)[C@H](CCCCNC(=O)CN2CCN(CC(=O)O)CCN(CC(=O)O)CCN(CC(=O)O)CC2)NC(=O)[C@H](Cc2c[nH]c3ccccc23)NC(=O)[C@H](CCC(N)=O)NC(=O)[C@H](CC(C)C)NC(=O)[C@H](Cc2c[nH]c3ccccc23)NC1=O)C1CCCCC1 [compound 100, Ac-(Chg)-S-D-C(3)-W-L-Q-W-[L-Lys(DOTA)]-C(3)-P-F-D-CONH2] (Ac-[Chg]SDCWLQWK(DOTA)CPFD-NH2; disulfide 4-10) | > 300

The remaining lines, values ahead:

Row | Kd [nM] | Structure (SMILES)
6 | 31 | CC(=O)N[C@@H](CC1CCN(CC(=O)O)CC1)C(=O)N[C@@H](CO)C(=O)N[C@@](C)(CC(=O)O)C(=O)N[C@H]1C/C=C\C[C@@H](C(=O)N2CCC[C@@]2(C)C(=O)N[C@@H](Cc2ccccc2)C(=O)N[C@@H](CC(=O)O)C(N)=O)NC(=O)[C@H](CC(N)=O)NC(=O)[C@H](Cc2ccc3ccccc3c2)NC(=O)[C@H](Cc2ccc(CNC(=O)CN3CCN(CC(=O)O)CCN(CC(=O)O)CCN(CC(=O)O)CC3)cc2)NC(=O)[C@H](CC(C)(C)C)NC(=O)[C@H](Cc2cccc3ccccc23)NC1=O [compound 207, Ac-[3-(piperidinyl-4-CH2CO2H)-Ala]-S-(aMe-Asp)-AllyG(4)-(1Nal)-(t-Bu-Ala)-[PAF(DOTA)]-(2Nal)-N-AllyG(4)-(aMe-P)-F-D-CONH2] (Ac-[Ala(1-CH2CO2H-4-piperidyl)]S[αMeD][AllylGly][1Nal][tBuAla][Phe(4-CH2NH2)](DOTA)[2Nal]N[AllylGly][αMeP]FD-NH2; staple (Z) 4-10)
7 | 0.96 | CC(=O)N[C@H](C(=O)N[C@@H](CO)C(=O)N[C@@H](CC(=O)O)C(=O)N[C@H]1CSSC[C@@H](C(=O)N(C)[C@H](C)C(=O)N[C@@](C)(Cc2ccccc2)C(=O)N[C@@H](CC(=O)O)C(=O)N[C@H](CCCCNC(=O)CN2CCN(CC(=O)O)CCN(CC(=O)O)CCN(CC(=O)O)CC2)C(N)=O)NC(=O)[C@H](CC(N)=O)NC(=O)[C@H](Cc2c[nH]c3ccccc23)NC(=O)[C@H](CCC(N)=O)NC(=O)[C@H](CC(C)C)NC(=O)[C@H](Cc2cccc3ccccc23)NC1=O)C1CCCCC1 [compound 109, Ac-(Chg)-S-D-C(3)-(1Nal)-L-Q-W-N-C(3)-(NMeD-Ala)-(aMe-F)-D-D-Lys(DOTA)-CONH2] (Ac-[Chg]SDC[1Nal]LQWNC[dNMeA][αMeF]D[dK](DOTA)-NH2; disulfide 4-10)
8 | 16 | CC(C)C[C@@H]1NC(=O)[C@H](Cc2c[nH]c3ccccc23)NC(=O)[C@@H](NC(=O)[C@H](CC(=O)O)NC(=O)[C@H](CO)NC(=O)CCCCCNC(=O)CN2CCN(CC(=O)O)CCN(CC(=O)O)CCN(CC(=O)O)CC2)CSSC[C@@H](C(=O)N2CCC[C@H]2C(=O)N[C@@H](Cc2cccc(F)c2)C(=O)N[C@@H](CC(=O)O)C(N)=O)NC(=O)[C@H](CC(N)=O)NC(=O)[C@H](Cc2c[nH]c3ccccc23)NC(=O)[C@H](CCC(N)=O)NC1=O [compound 36, DOTA-Ahx-S-D-C(3)-W-L-Q-W-N-C(3)-P-(3Fluoro-F)-D-CONH2] ({DOTA-Ahx}-SDCWLQWNCP[Phe(3-F)]D-NH2; disulfide 3-9)
9 | 0.29 | CC(=O)N[C@H](C(=O)N[C@@H](CO)C(=O)N[C@@H](CC(=O)O)C(=O)N[C@H]1CSSC[C@@H](C(=O)N2CCC[C@@]2(C)C(=O)N[C@@H](Cc2ccccc2)C(=O)N[C@@H](CC(=O)O)C(=O)N[C@H](CCCCNC(=O)CN2CCN(CC(=O)O)CCN(CC(=O)O)CCN(CC(=O)O)CC2)C(N)=O)NC(=O)[C@H](CC(N)=O)NC(=O)[C@H](Cc2ccc3ccccc3c2)NC(=O)[C@H](CCC(N)=O)NC(=O)[C@H](CC(C)(C)C)NC(=O)[C@H](Cc2cccc3ccccc23)NC1=O)C1CCCCC1 [compound 148, Ac-(Chg)-S-D-C(3)-(1Nal)-(t-Bu-Ala)-Q-(2Nal)-N-C(3)-(aMe-P)-F -D-D-Lys(DOTA)-CONH2] (Ac-[Chg]SDC[1Nal][tBuAla]Q[2Nal]NC[αMeP]FD[dK](DOTA)-NH2; disulfide 4-10)
